Numbers after ± are expanded uncertainties.
How the values were obtained:
[1] = refractive index (Na D-line) (dimensionless); settings: 101.33 kPa, Liquid, Standard Abbe refractometry
[2] = Liquid; for mass density: 101.33 kPa
[3] = xn = mol fraction of the nth substance listed; settings: 303.15 K, 101.33 kPa, Liquid
[4] = activity coefficient (dimensionless); of the first substance listed, at infinite dilution; xn = mol fraction of the nth substance listed; settings: Liquid, Differential ebulliometry, x1 = 0

In the case of `Nc1ccccc1` [aniline], the refractive index ([1]; 293.15 K) is reported as 1.5862 ± 0.0004, the mass density ([2]; 293.15 K) is reported as 1021.72 ± 0.27 kg/m3 and the mass density ([2]; 303.15 K) is reported as 1012.94 ± 0.27 kg/m3.

For `Nc1ccccc1` [aniline] + NC1CCCCC1, the mass density ([3]; x2 = 0) was 1012.94 ± 0.27 kg/m3.

With `NC1CCCCC1` [cyclohexylamine] the refractive index ([1]; 288.15 K) was 1.4624 ± 0.0005, the mass density ([2]; 303.15 K) was 858.2 ± 0.18 kg/m3 and the “vapor or sublimation pressure” value ([2]; 333.15 K) was 7.51 ± 0.5 kPa. The “vapor or sublimation pressure” value ([2]; 363.15 K) was 25.59 ± 0.58 kPa.

For `NC1CCCCC1` [cyclohexylamine] + CCCCCCC, the mass density ([3]; x1 = 0.1009) was 689.34 ± 0.43 kg/m3, the mass density ([3]; x1 = 0.1999) was 703.99 ± 0.41 kg/m3 and the mass density ([3]; x1 = 0.3006) was 719.71 ± 0.39 kg/m3. The mass density ([3]; x1 = 0.3983) was 735.92 ± 0.37 kg/m3, the mass density ([3]; x1 = 0.5) was 753.83 ± 0.35 kg/m3 and the mass density ([3]; x1 = 0.5999) was 772.37 ± 0.33 kg/m3. It also gave a mass density ([3]; x1 = 0.6989) of 791.79 ± 0.31 kg/m3, a mass density ([3]; x1 = 0.7996) of 812.68 ± 0.28 kg/m3 and a mass density ([3]; x1 = 0.8993) of 834.6 ± 0.26 kg/m3. It also gave a mass density ([3]; x1 = 1) of 858.2 ± 0.23 kg/m3.

`NC1CCCCC1` [cyclohexylamine] + CCCCCCCC gave a mass density ([3]; x1 = 0.1036) of 705.94 ± 0.38 kg/m3, a mass density ([3]; x1 = 0.2003) of 717.44 ± 0.37 kg/m3 and a mass density ([3]; x1 = 0.3006) of 730.4 ± 0.36 kg/m3. For the same molecule, the mass density ([3]; x1 = 0.4085) was 745.58 ± 0.34 kg/m3, the mass density ([3]; x1 = 0.5001) was 759.5 ± 0.33 kg/m3 and the mass density ([3]; x1 = 0.5991) was 775.85 ± 0.31 kg/m3. The mass density ([3]; x1 = 0.6998) was 793.85 ± 0.29 kg/m3, the mass density ([3]; x1 = 0.7503) was 803.55 ± 0.28 kg/m3 and the mass density ([3]; x1 = 0.8018) was 813.83 ± 0.27 kg/m3. It also gave a mass density ([3]; x1 = 0.8502) of 823.95 ± 0.27 kg/m3, a mass density ([3]; x1 = 1) of 858.2 ± 0.23 kg/m3 and an activity coefficient ([4]; 353.15 K) of 1.61 ± 0.1. The activity coefficient ([4]; 373.15 K) was 1.5 ± 0.09 and the activity coefficient ([4]; 393.15 K) was 1.42 ± 0.09.

With `NC1CCCCC1` [cyclohexylamine] + CCCCCCCCC the mass density ([3]; x1 = 0.0998) was 718.79 ± 0.37 kg/m3, the mass density ([3]; x1 = 0.1994) was 728.47 ± 0.36 kg/m3 and the mass density ([3]; x1 = 0.301) was 739.41 ± 0.35 kg/m3. The mass density ([3]; x1 = 0.401) was 751.43 ± 0.34 kg/m3, the mass density ([3]; x1 = 0.4998) was 764.51 ± 0.32 kg/m3 and the mass density ([3]; x1 = 0.6006) was 779.38 ± 0.31 kg/m3. For the same molecule, the mass density ([3]; x1 = 0.7) was 795.69 ± 0.29 kg/m3, the mass density ([3]; x1 = 0.7955) was 813.15 ± 0.28 kg/m3 and the mass density ([3]; x1 = 0.8999) was 834.62 ± 0.26 kg/m3. It also gave a mass density ([3]; x1 = 1) of 858.2 ± 0.23 kg/m3.

With `NC1CCCCC1` [cyclohexylamine] + CCCCCCCCCC the mass density ([3]; x1 = 0.1004) was 729.74 ± 0.37 kg/m3, the mass density ([3]; x1 = 0.2003) was 737.86 ± 0.36 kg/m3 and the mass density ([3]; x1 = 0.3002) was 746.97 ± 0.35 kg/m3. It also gave a mass density ([3]; x1 = 0.3994) of 757.29 ± 0.34 kg/m3, a mass density ([3]; x1 = 0.4998) of 768.9 ± 0.32 kg/m3 and a mass density ([3]; x1 = 0.5996) of 782.09 ± 0.31 kg/m3. It also gave a mass density ([3]; x1 = 0.6996) of 797.14 ± 0.29 kg/m3, a mass density ([3]; x1 = 0.8002) of 814.52 ± 0.28 kg/m3 and a mass density ([3]; x1 = 0.9006) of 834.67 ± 0.26 kg/m3. The mass density ([3]; x1 = 1) was 858.2 ± 0.23 kg/m3.

For `NC1CCCCC1` [cyclohexylamine] + CCCCCCCCCCC, the mass density ([3]; x1 = 1) was 858.2 ± 0.23 kg/m3.

`NC1CCCCC1` [cyclohexylamine] + CCc1ccccc1 showed an activity coefficient ([4]; 353.15 K) of 1.13 ± 0.07, an activity coefficient ([4]; 373.15 K) of 1.09 ± 0.07 and an activity coefficient ([4]; 393.15 K) of 1.06 ± 0.06.

`NC1CCCCC1` [cyclohexylamine] + Cc1ccccc1 showed an activity coefficient ([4]; 353.15 K) of 1.19 ± 0.07 and an activity coefficient ([4]; 373.15 K) of 1.12 ± 0.07.

Work on `NC1CCCCC1` [cyclohexylamine] + Nc1ccccc1 yielded a mass density ([3]; x1 = 0.1161) of 992.51 ± 0.25 kg/m3, a mass density ([3]; x1 = 0.1936) of 979.58 ± 0.23 kg/m3 and a mass density ([3]; x1 = 0.281) of 965.35 ± 0.22 kg/m3. For the same molecule, the mass density ([3]; x1 = 0.3837) was 949.2 ± 0.21 kg/m3, the mass density ([3]; x1 = 0.4907) was 932.82 ± 0.21 kg/m3 and the mass density ([3]; x1 = 0.5932) was 917.38 ± 0.21 kg/m3. The mass density ([3]; x1 = 0.7087) was 900.24 ± 0.21 kg/m3, the mass density ([3]; x1 = 0.7738) was 890.69 ± 0.21 kg/m3 and the mass density ([3]; x1 = 0.8759) was 875.75 ± 0.22 kg/m3. The mass density ([3]; x1 = 1) was 858.2 ± 0.23 kg/m3, the activity coefficient ([4]; 383.15 K) was 0.84 ± 0.05 and the activity coefficient ([4]; 393.15 K) was 0.94 ± 0.06. It also gave an activity coefficient ([4]; 403.15 K) of 1.03 ± 0.06.

`NC1CCCCC1` [cyclohexylamine] + O showed a mass density ([3]; x1 = 0.1002) of 956.7 ± 0.15 kg/m3, a mass density ([3]; x1 = 0.197) of 935.34 ± 0.16 kg/m3 and a mass density ([3]; x1 = 0.2237) of 930.93 ± 0.16 kg/m3. It also gave a mass density ([3]; x1 = 0.3021) of 919.43 ± 0.17 kg/m3, a mass density ([3]; x1 = 0.397) of 908.71 ± 0.18 kg/m3 and a mass density ([3]; x1 = 0.5016) of 897.85 ± 0.19 kg/m3. It also gave a mass density ([3]; x1 = 0.6037) of 888.39 ± 0.2 kg/m3, a mass density ([3]; x1 = 0.6931) of 880.7 ± 0.21 kg/m3 and a mass density ([3]; x1 = 0.7801) of 873.76 ± 0.21 kg/m3. The mass density ([3]; x1 = 0.9004) was 864.97 ± 0.22 kg/m3 and the mass density ([3]; x1 = 1) was 858.2 ± 0.23 kg/m3.

Work on `CCCCCCCCCC` [decane] yielded a refractive index ([1]; 298.15 K) of 1.4092 ± 0.0004, a mass density ([2]; 298.15 K) of 726.55 ± 0.38 kg/m3 and a mass density ([2]; 303.15 K) of 722.54 ± 0.38 kg/m3.

For `CCCCCCCCCC` [decane] + NC1CCCCC1, the mass density ([3]; x2 = 0) was 722.54 ± 0.38 kg/m3.

In the case of `CCc1ccccc1` [ethylbenzene], the refractive index ([1]; 293.15 K) is reported as 1.496 ± 0.0004 and the mass density ([2]; 298.15 K) is reported as 862.59 ± 0.19 kg/m3.

`CCc1ccccc1` [ethylbenzene] + NC1CCCCC1 showed an activity coefficient ([4]; 353.15 K) of 1.18 ± 0.07, an activity coefficient ([4]; 373.15 K) of 1.16 ± 0.07 and an activity coefficient ([4]; 393.15 K) of 1.13 ± 0.07.

With `CCCCCCC` [heptane] the refractive index ([1]; 298.15 K) was 1.3853 ± 0.0004, the mass density ([2]; 298.15 K) was 679.43 ± 0.44 kg/m3 and the mass density ([2]; 303.15 K) was 675.32 ± 0.44 kg/m3.

`CCCCCCC` [heptane] + NC1CCCCC1 gave a mass density ([3]; x2 = 0) of 675.32 ± 0.44 kg/m3.

For `CCCCCCCCC` [nonane], the refractive index ([1]; 293.15 K) was 1.4055 ± 0.0004, the mass density ([2]; 293.15 K) was 719.13 ± 0.38 kg/m3 and the mass density ([2]; 303.15 K) was 710.05 ± 0.38 kg/m3.

With `CCCCCCCCC` [nonane] + NC1CCCCC1 the mass density ([3]; x2 = 0) was 710.05 ± 0.38 kg/m3.

With `CCCCCCCC` [octane] the refractive index ([1]; 298.15 K) was 1.3946 ± 0.0004, the mass density ([2]; 298.15 K) was 698.49 ± 0.39 kg/m3 and the mass density ([2]; 303.15 K) was 694.67 ± 0.39 kg/m3.

For `CCCCCCCC` [octane] + NC1CCCCC1, the mass density ([3]; x2 = 0) was 694.67 ± 0.39 kg/m3, the activity coefficient ([4]; 353.15 K) was 1.36 ± 0.08 and the activity coefficient ([4]; 373.15 K) was 1.29 ± 0.08. It also gave an activity coefficient ([4]; 393.15 K) of 1.2 ± 0.07.

`Cc1ccccc1` [toluene] + NC1CCCCC1 showed an activity coefficient ([4]; 353.15 K) of 1.14 ± 0.07, an activity coefficient ([4]; 373.15 K) of 1.13 ± 0.07 and an activity coefficient ([4]; 393.15 K) of 1.06 ± 0.06.

`CCCCCCCCCCC` [undecane] + NC1CCCCC1 showed a mass density ([3]; x2 = 0) of 732.93 ± 0.36 kg/m3, a mass density ([3]; x2 = 0.1) of 738.82 ± 0.35 kg/m3 and a mass density ([3]; x2 = 0.2172) of 747 ± 0.34 kg/m3. The mass density ([3]; x2 = 0.3066) was 754.16 ± 0.34 kg/m3, the mass density ([3]; x2 = 0.4011) was 762.69 ± 0.33 kg/m3 and the mass density ([3]; x2 = 0.5005) was 772.99 ± 0.32 kg/m3. It also gave a mass density ([3]; x2 = 0.5997) of 784.83 ± 0.3 kg/m3, a mass density ([3]; x2 = 0.7005) of 798.79 ± 0.29 kg/m3 and a mass density ([3]; x2 = 0.7998) of 814.98 ± 0.27 kg/m3. It also gave a mass density ([3]; x2 = 0.8998) of 834.57 ± 0.26 kg/m3.

In the case of `O` [water], the refractive index ([1]; 293.15 K) is reported as 1.3336 ± 0.0004.
